Tests used:
Cathepsin K [1] = target: Cathepsin K (Oryctolagus cuniculus, UniProt P43236); test: Inhibitory concentration against humanized rabbit cathepsin K
Cathepsin S = Cathepsin S (Homo sapiens, UniProt P25774); test: Inhibitory concentration against human cathepsin S
Procathepsin L = Procathepsin L (Homo sapiens, UniProt P07711); test: Inhibitory concentration against human cathepsin L
Cathepsin B = Cathepsin B (Homo sapiens, UniProt P07858); test: Inhibitory concentration against human cathepsin B
[2] = Compound was evaluated for its increased potency in bone resorption assay; type: functional
Cathepsin K [3] = target: T1, Cathepsin K (Homo sapiens, UniProt P43235); test: Inhibitory concentration against human cathepsin K
T1 sequence (P43235 whole entry): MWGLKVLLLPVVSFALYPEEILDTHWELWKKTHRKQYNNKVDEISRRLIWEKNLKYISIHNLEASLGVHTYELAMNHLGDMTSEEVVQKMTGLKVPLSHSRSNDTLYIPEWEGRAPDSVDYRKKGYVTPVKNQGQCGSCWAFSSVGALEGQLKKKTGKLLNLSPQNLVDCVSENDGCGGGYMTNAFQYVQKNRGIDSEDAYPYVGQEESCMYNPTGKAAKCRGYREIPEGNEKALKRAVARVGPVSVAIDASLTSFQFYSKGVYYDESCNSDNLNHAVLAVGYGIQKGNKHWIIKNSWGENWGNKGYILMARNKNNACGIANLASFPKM

Sequence of Procathepsin L (P07711 whole entry): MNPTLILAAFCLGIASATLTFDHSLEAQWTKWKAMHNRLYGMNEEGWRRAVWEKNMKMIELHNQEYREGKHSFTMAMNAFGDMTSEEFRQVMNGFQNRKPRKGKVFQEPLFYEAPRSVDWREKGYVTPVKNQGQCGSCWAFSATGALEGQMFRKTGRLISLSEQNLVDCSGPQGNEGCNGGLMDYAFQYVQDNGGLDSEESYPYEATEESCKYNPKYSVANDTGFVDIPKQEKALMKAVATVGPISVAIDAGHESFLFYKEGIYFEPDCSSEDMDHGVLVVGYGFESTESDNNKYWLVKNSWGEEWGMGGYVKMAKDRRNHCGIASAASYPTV
Sequence of Cathepsin S (P25774 whole entry): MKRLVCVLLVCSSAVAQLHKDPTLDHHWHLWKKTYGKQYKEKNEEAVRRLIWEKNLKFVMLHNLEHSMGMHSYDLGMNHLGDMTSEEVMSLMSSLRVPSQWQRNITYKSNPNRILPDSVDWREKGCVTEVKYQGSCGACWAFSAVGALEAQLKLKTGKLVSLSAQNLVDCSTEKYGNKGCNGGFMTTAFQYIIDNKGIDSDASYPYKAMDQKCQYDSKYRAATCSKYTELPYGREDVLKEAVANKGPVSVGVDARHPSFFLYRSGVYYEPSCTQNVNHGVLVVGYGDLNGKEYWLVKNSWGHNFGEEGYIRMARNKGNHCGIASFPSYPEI

For `CC(C)CC(Cc1ccc(Br)cc1)C(=O)NCC#N` (stereo not given), the IC50 (Cathepsin K [1]) was 2390 nM.

For `CC(C)C[C@H](Nc1cscc1Br)C(=O)NCC#N`, the IC50 (Cathepsin S) was 897 nM, the IC50 (Procathepsin L) was 458 nM and the IC50 (Cathepsin K [1]) was 43 nM. For the same compound, the IC50 (Cathepsin B) was 158 nM and the Activity [2] was 71 nM.

Work on `CC(C)CC(Cc1cccc(Br)c1)C(=O)NCC#N` (stereo not given) yielded an IC50 (Cathepsin K [1]) of 3390 nM.

`CC(C)CC(Sc1ccc(Br)cc1)C(=O)NCC#N` (stereo not given) showed an IC50 (Cathepsin K [1]) of 675 nM.

With `CC(C)CC(Sc1cccc(Br)c1)C(=O)NCC#N` (stereo not given) the IC50 (Cathepsin K [1]) was 684 nM.

`CC(C)CC(Sc1ccccc1Br)C(=O)NCC#N` (stereo not given) showed an IC50 (Cathepsin K [1]) of 433 nM.

For `CC(C)CC(Nc1ccc(Br)cc1)C(=O)NCC#N` (stereo not given), the IC50 (Cathepsin K [1]) was 208 nM.

In the case of `CC(C)C[C@H](Nc1ccccc1-c1ccc(N2CCNCC2)cc1)C(=O)NCC#N`, the IC50 (Cathepsin S) is reported as 158 nM, the IC50 (Procathepsin L) is reported as 2100 nM and the IC50 (Cathepsin K [1]) is reported as 3 nM. For the same compound, the IC50 (Cathepsin B) was 1810 nM and the Activity [2] was 9 nM.

With `CC(C)C[C@H](Nc1cccc(-c2ccc(N3CCNCC3)cc2)c1)C(=O)NCC#N` the IC50 (Cathepsin S) was 24 nM, the IC50 (Procathepsin L) was 108 nM and the IC50 (Cathepsin K [1]) was 2 nM. For the same compound, the IC50 (Cathepsin B) was 93 nM and the Activity [2] was 61 nM.

`CC(C)CC(Oc1ccc(Br)cc1)C(=O)NCC#N` (stereo not given) gave an IC50 (Cathepsin K [1]) of 3000 nM.

With `CC(C)CC(Oc1cccc(Br)c1)C(=O)NCC#N` (stereo not given) the IC50 (Cathepsin K [1]) was 1470 nM.

In the case of `CC(C)CC(Nc1cccc(Br)c1)C(=O)NCC#N` (stereo not given), the IC50 (Cathepsin K [1]) is reported as 72 nM.

Work on `CC(C)C[C@H](Nc1ccc(-c2ccc(N3CCNCC3)cc2)cc1)C(=O)NCC#N` yielded an IC50 (Cathepsin S) of 34 nM, an IC50 (Procathepsin L) of 115 nM and an IC50 (Cathepsin K [1]) of 27 nM. For the same compound, the IC50 (Cathepsin B) was 26 nM and the Activity [2] was 37 nM.

Work on `CC(C)C[C@@H](C(=O)NCC#N)c1cccc(-c2ccc(N3CCNCC3)cc2)c1` yielded an IC50 (Cathepsin K [1]) of 11 nM and an Activity [2] of 95 nM.

`CC(C)CC(Cc1ccccc1Br)C(=O)NCC#N` (stereo not given) gave an IC50 (Cathepsin K [1]) of 2350 nM.

For `CC(C)CC(Nc1ccccc1Br)C(=O)NCC#N` (stereo not given), the IC50 (Cathepsin K [1]) was 54 nM.

Compound `CC(C)C[C@H](Nc1cscc1-c1ccc(N2CCNCC2)cc1)C(=O)NCC#N` has an IC50 (Cathepsin S) of 102 nM, an IC50 (Procathepsin L) of 352 nM and an IC50 (Cathepsin K [3]) of 0.2 nM. For the same compound, the IC50 (Cathepsin K [1]) was 1 nM, the IC50 (Cathepsin B) was 123 nM and the Activity [2] was 10 nM.

Compound `CC(C)CC(Oc1ccccc1Br)C(=O)NCC#N` (stereo not given) has an IC50 (Cathepsin K [1]) of 1150 nM.

Reference: ChEMBL document CHEMBL1137165, “Rational design of potent and selective NH-linked aryl/heteroaryl cathepsin K inhibitors” (Bioorg Med Chem Lett, 2004)
